Reference: patent US6383773B2, “Penicillin conversion” (Massachusetts Institute of Technology, priority 1998, dated 2002)

Tests used:
[1] = biological target: T1, expandase from S. clavuligerus (Streptomyces clavuligerus, UniProt P18548); assay: Ring expansion by cell-free extracts of S. lividans transformant pHJ11 (Example 7); format: biochemical; details: pHJ11 cell-free extract 6 mg/ml protein, substrate 5.6 mM, after 4 h of reaction
T1 construct: made in house; host or cells: S. lividans 1326 transformed with pHJ11, crude cell-free extract
T1 sequence (P18548 whole entry): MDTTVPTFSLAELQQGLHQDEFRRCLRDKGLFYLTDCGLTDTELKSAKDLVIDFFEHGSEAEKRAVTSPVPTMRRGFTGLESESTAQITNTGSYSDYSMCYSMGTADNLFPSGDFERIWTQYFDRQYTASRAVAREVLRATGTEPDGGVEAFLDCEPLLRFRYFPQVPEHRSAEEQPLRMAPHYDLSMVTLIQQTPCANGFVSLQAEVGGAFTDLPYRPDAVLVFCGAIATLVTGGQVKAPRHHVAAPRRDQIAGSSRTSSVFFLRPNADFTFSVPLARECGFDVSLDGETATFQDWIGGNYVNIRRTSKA
Experimental: Microorganism, Medium and Culture Conditions: S. lividans 1326 was used in all experiments. Cultures were grown in 250 ml baffled flasks containing 40 ml of MST medium. Each flask was inoculated with 50 μl of a spore suspension (prepared and stored at −80° C. in 20% glycerol) and incubated at 30° C., 250 rpm, for 48 h.
Plasmids: The plasmid pUL702-202a was a gift from J. F. Martin (University of León, Spain). This vector harboured a 4.3 Kb BglII fragment containing the epimerase and expandase genes from Nocardia lactamdurans inserted at the BglII site on pIJ702. The plasmid pHJ11 was constructed by cloning a 3 Kb BglII fragment containing the expandase gene from S. clavuligerus 3585 into pIJ702 at the BglII site.
Ring Expansion Reaction: The ring expansion mixture contained 1.8 mM FeSO4, 1.28 mM α-ketoglutarate, 6 mg/ml protein (cell-free extract), 8 mM KCl, 8 mM MgSO4, 14 mM DTT and 50 mM TrisHCl (pH 7.4) in a final volume of 2.5 ml. Substrate concentration was 5.6 mM. Additions were made following the order established by Shen et al. (Enzyme Microb. Technol. 6:402-404, 1984). Reaction mixtures were incubated in test tubes at 220 rpm, 30° C. At different times, 0.5 ml samples were taken and the reaction was stopped by adding 0.5 ml of methanol. […] Biotransformation activity was detected by paper disc-agar diffusion bioassay. […]

[2] = tested on: immobilized S. clavuligerus NP1 cells; assay: Conversion of penicillin G by immobilized cells (Example 5); format: cell-based
Experimental: Culture Conditions: A seed culture of S. clavuligerus mutant NP-1 was made by thawing a frozen preparation of spores and inoculating 40μl into 40 ml MST medium containing 90 mM MOPS buffer, pH 7.0, 1% starch and 3% trypticase soy broth medium without dextrose (BBL Becton Dickinson Microbiology Systems, Cockeysville, Md.) in 250 ml baffled flasks. The flasks were incubated for 2 days at 30° C. and 250 rpm. One ml of the seed culture was used as inoculum for the main culture which contained 80 ml of MST medium in 500 ml unbaffled flasks. The flasks were incubated for 24 h at 30° C. and 250 rpm.
Preparation of Resting Cells: Cells were harvested by centrifugation at 14,000×g for 15 min at 4° C. and washed twice with cold deionized water. Washed cells were resuspended in 10 ml of water giving a concentration (wet weight) of about 0.31 g/ml.
Preparation of Polyethyleneimine (PEI)-Barium Alginate Entrapped Cells: Resting cells from a one-day old culture of S. clavuligerus NP-1 (2 g wet weight) were directly resuspended in 20 ml of 1.5% (w/v) sodium alginate solution. The resulting sodium alginate-cell suspension was placed into a 10 ml plastic syringe containing a 26.6 G needle. The suspension was added drop by drop into a slowly stirring hardening solution of 2% (w/v) barium chloride containing 1% (w/v) PEI, giving beads of about 1.5-2.0 mm in diameter. […]

SMILES: CC1(C)S[C@@H]2[C@H](NC(=O)Cc3ccccc3)C(=O)N2[C@H]1C(=O)O [Penicillin G, penicillin G]
- production of cephalosporins [1]: about 7 μg/ml
- cephalosporin production ([2]; cells immobilized in agarose (4% w/v) and k-carrageenan (3% w/v)): did not observe cephalosporin production
- ring expansion ([2]; resting cells entrapped in PEI-barium alginate (1.5%)): able to expand penicillin G
